Results from PubChem BioAssay (NCI).
“And” between values parts separate entries of the source, which are not always exact repeats. Equal entries are not always repeated.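 96-well plates; 48 h exposure; 5 concentrations. Endpoints by linear interpolation between flanking doses. Not reached: highest tested concentration assigned. At the GI50, growth is halved. The concentration for full growth arrest is given as TGI.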

Assays:
Test in all cases: NCI-60 cell line screen, 48 h
786-0 renal = tested on: 786-0 renal
CAKI-1 renal = tested on: CAKI-1 renal
HCT-116 colon = tested on: HCT-116 colon
HL-60(TB) leukemia = tested on: HL-60(TB) leukemia
K-562 leukemia = tested on: K-562 leukemia
NCI-H226 lung = tested on: NCI-H226 lung
SK-MEL-28 melanoma = tested on: SK-MEL-28 melanoma
SK-OV-3 ovarian = tested on: SK-OV-3 ovarian
UACC-257 melanoma = tested on: UACC-257 melanoma
CCRF-CEM leukemia = tested on: CCRF-CEM leukemia

| SMILES | GI50 (786-0 renal) | TGI (786-0 renal) | GI50 (CAKI-1 renal) | TGI (CAKI-1 renal) | GI50 (HCT-116 colon) | TGI (HCT-116 colon) | GI50 (HL-60(TB) leukemia) | TGI (HL-60(TB) leukemia) | GI50 (K-562 leukemia) | TGI (K-562 leukemia) | GI50 (NCI-H226 lung) | TGI (NCI-H226 lung) | GI50 (SK-MEL-28 melanoma) | TGI (SK-MEL-28 melanoma) | GI50 (SK-OV-3 ovarian) | TGI (SK-OV-3 ovarian) | GI50 (UACC-257 melanoma) | TGI (UACC-257 melanoma) | TGI (CCRF-CEM leukemia) | GI50 (CCRF-CEM leukemia) |
| --- | --- | --- | --- | --- | --- | --- | --- | --- | --- | --- | --- | --- | --- | --- | --- | --- | --- | --- | --- | --- |
| COc1ccc(OC)c(/C=C/C(=O)c2ccc3cc(OC)ccc3c2)c1 | > 11.7 µM | > 50 µM | 1.2 µM | 10.6 µM | > 15 µM | > 50 µM | 4.93 µM | > 39.4 µM | 6.46 µM | > 50 µM | > 50 µM | > 50 µM | 3.74 µM | > 50 µM | 1.04 µM | 2.37 µM | 7.05 µM | > 27.8 µM | – | – |
| O=C(O)CSc1nnc2c3ccccc3c3ccccc3c2n1 | – | > 100 µM | – | > 100 µM | – | > 100 µM | – | – | – | > 100 µM | – | > 100 µM | – | > 100 µM | – | > 100 µM | – | > 100 µM | – | – |
| CN(C)c1ccc(/C=N/NC(=O)c2cnc3ccccc3c2)cc1 | – | > 100 µM | – | > 100 µM | – | > 100 µM | – | > 100 µM | – | > 100 µM | – | > 100 µM | – | > 100 µM | – | > 100 µM | – | > 100 µM | – | – |
| O=S1Cc2ccccc2CSS1 (stereo not drawn) | – | 29.1 µM | – | 35.8 µM | – | 28.3 µM | – | 20 µM | – | 38.1 µM | – | 55.4 µM | – | 26.8 µM | – | > 100 µM | – | 29.1 µM | – | – |
| C/C(=N\NS(=O)(=O)c1ccccc1)c1ccc[n+]([O-])n1 | – | > 100 µM | – | > 100 µM | – | > 100 µM | – | 69.9 µM | – | > 100 µM | – | – | – | > 100 µM | – | > 100 µM | – | > 100 µM | 64.6 µM | – |
| COc1ccc(S(=O)(=O)N/N=C/CN2C(=O)c3ccccc3C2=O)cc1 | – | > 100 µM | – | > 100 µM | – | – | – | > 100 µM | – | > 100 µM | – | > 100 µM | – | – | – | – | – | > 100 µM | > 100 µM | – |
| O=[N+]([O-])c1ccc2nc(=S)[nH]n2c1 | – | > 100 µM | – | > 100 µM | – | > 100 µM | – | > 100 µM | – | > 100 µM | – | > 100 µM | – | – | – | > 100 µM | – | > 100 µM | > 100 µM | – |
| CCCCCC/C(CC(=O)CCC(=O)NCCc1ccccc1)=N\NC(=O)c1ccc2ccccc2c1O | – | > 100 µM | – | – | – | > 100 µM | – | 33.7 µM | – | – | – | > 100 µM | – | > 100 µM | – | – | – | > 100 µM | 47.4 µM | – |
| COc1ccc2c(c1)O/C(=C\c1ccc([N+](=O)[O-])s1)C2=O | 11.4 µM | > 71.6 µM | – | – | – | – | – | > 100 µM | 0.285 µM | 1.31 µM | > 31.3 µM | > 100 µM | 17.1 µM | > 100 µM | > 22.7 µM | > 62.7 µM | – | > 100 µM | > 100 µM | 0.478 µM |
| CCCNC(=O)Nc1ccc2c(c1)Cc1cc(N(CCCl)CCCl)ccc1-2 | – | > 100 µM | – | > 100 µM | – | > 100 µM | – | > 100 µM | – | > 100 µM | – | – | – | 35.7 µM | – | – | – | > 100 µM | > 100 µM | – |
| C=C1CC(CC(=O)C(C)CC2CC(=C)C(=O)O2)OC1=O (stereo not drawn) | – | 43.3 µM | – | – | – | 24.6 µM | – | 33.6 µM | – | 89.6 µM | – | – | – | 30.4 µM | – | > 100 µM | – | 30.7 µM | 26.8 µM | – |
| C[C@H](CCCOS(C)(=O)=O)[C@H]1CC[C@H]2[C@@H]3CC[C@@H]4C[C@H](OS(C)(=O)=O)CC[C@]4(C)[C@H]3CC[C@]12C | 523 µM | – | 954 µM | – | 532 µM | 1240 µM | – | – | – | – | 418 µM | – | 1060 µM | > 2500 µM | > 2500 µM | – | 816 µM | > 2500 µM | > 2500 µM | > 2500 µM |
| Nc1nc(Cl)c2ncn(Cc3ccc(-c4ccc(CCl)cc4)cc3)c2n1 | 12.9 µM | > 100 µM | 5.76 µM | 33.3 µM | 6.71 µM | 23.7 µM | 19.4 µM | > 100 µM | 13.9 µM | > 100 µM | 3.47 µM | 17.9 µM | 14.7 µM | 33.7 µM | 37.1 µM | > 100 µM | 3.24 µM | 15.2 µM | – | – |
| NC(N)=NC(N)=NCc1ccco1 | > 1250 µM | > 1250 µM | 758 µM | > 1250 µM | 508 µM and 492 µM | > 1250 µM | 390 µM | > 1250 µM | 264 µM | > 1250 µM | > 1250 µM | > 1250 µM | > 1250 µM | > 1250 µM | > 1250 µM | > 1250 µM | 843 µM and 565 µM | > 1250 µM | – | – |
| CC1(C)N=C(N)N=C(N)N1c1ccc(CCC(=O)Nc2cccc(S(=O)(=O)F)c2)cc1 | 3.89 µM | > 100 µM | > 100 µM | > 100 µM | 3.96 µM | > 100 µM | 2.86 µM | > 100 µM | 1.35 µM | > 100 µM | > 100 µM | > 100 µM | 81.1 µM | > 100 µM | > 100 µM | > 100 µM | 4.09 µM | > 100 µM | – | – |
| COc1ccc2c(c1)NC(=O)CN2c1nc(C)nc2ccccc12 | 0.00346 µM | > 100 µM | 0.000497 µM | > 100 µM | 0.000369 µM | > 100 µM | 0.000361 µM | 0.00151 µM | 0.000359 µM | > 100 µM | – | > 100 µM | – | – | 0.000409 µM | 7.19 µM | – | – | > 100 µM | 0.000551 µM |
| CC1CCC2[C@@H](C)COC3O[C@]4(C)CCC1C32OO4 (stereo partly drawn) | – | > 100 µM | – | > 100 µM | – | > 100 µM | – | – | – | > 100 µM | – | > 100 µM | – | > 100 µM | – | > 100 µM | – | > 100 µM | > 100 µM | – |
| CCOC(=O)C1C(=O)c2cccc(OC)c2C2COC(=O)N12 (stereo not drawn) | – | > 100 µM | – | – | – | > 100 µM | – | > 100 µM | – | > 100 µM | – | > 100 µM | – | > 100 µM | – | > 100 µM | – | > 100 µM | > 100 µM | – |
| CCOc1cc[n+](C(=C=[N-])C#N)cc1 | – | > 100 µM | – | > 100 µM | – | > 100 µM | – | > 100 µM | – | > 100 µM | – | > 100 µM | – | – | – | > 100 µM | – | > 100 µM | > 100 µM | – |
| CCc1cccc(CC)c1NC(=O)C1=CNC(C)=C(C(=O)Nc2c(CC)cccc2CC)C1c1ccc(O)c(OC)c1 (stereo not drawn) | – | > 100 µM | – | > 100 µM | – | – | – | 57.4 µM | – | 99.5 µM | – | 89.7 µM | – | > 100 µM | – | > 100 µM | – | 92.7 µM | 61 µM | – |
